Measurements as given in ChEMBL document CHEMBL1781944, “The discovery of novel benzofuran-2-carboxylic acids as potent Pim-1 inhibitors” (Bioorg Med Chem Lett, 2011).
Values after ≈ are worked out from the molar mass of the structure shown. Active and inactive are the calls of the source. No cut-off for these calls is given here.

Legend:
[1] = target: T1, Serine/threonine-protein kinase pim-1 (Homo sapiens, UniProt P11309)
Target sequence in this assay (P11309 whole entry): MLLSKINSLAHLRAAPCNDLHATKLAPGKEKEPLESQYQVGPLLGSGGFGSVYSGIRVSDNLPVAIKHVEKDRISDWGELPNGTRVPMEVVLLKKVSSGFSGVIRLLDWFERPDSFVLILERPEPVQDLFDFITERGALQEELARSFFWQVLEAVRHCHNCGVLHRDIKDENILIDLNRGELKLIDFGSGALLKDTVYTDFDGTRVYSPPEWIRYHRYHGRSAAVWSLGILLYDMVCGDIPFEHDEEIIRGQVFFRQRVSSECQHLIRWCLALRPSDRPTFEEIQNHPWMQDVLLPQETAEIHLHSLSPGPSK

[2] = target: Serine/threonine-protein kinase pim-2 (Homo sapiens, UniProt Q9P1W9)
[3] = target: T1, Serine/threonine-protein kinase pim-1; conditions: 25 uM
Target sequence in this assay (P11309 whole entry, looked up): as the sequence (P11309 whole entry) above

Cytochrome P450 2D6 = Cytochrome P450 2D6 (Homo sapiens, UniProt P10635); assay: Inhibition of CYP2D6 in human liver microsomes; format: ADME, Microsome
Cytochrome P450 1A2 = target: T2, Cytochrome P450 1A2 (Homo sapiens, UniProt P05177); assay: Inhibition of CYP1A2 in human liver microsomes; format: ADME, Microsome
T2 sequence (P05177 whole entry): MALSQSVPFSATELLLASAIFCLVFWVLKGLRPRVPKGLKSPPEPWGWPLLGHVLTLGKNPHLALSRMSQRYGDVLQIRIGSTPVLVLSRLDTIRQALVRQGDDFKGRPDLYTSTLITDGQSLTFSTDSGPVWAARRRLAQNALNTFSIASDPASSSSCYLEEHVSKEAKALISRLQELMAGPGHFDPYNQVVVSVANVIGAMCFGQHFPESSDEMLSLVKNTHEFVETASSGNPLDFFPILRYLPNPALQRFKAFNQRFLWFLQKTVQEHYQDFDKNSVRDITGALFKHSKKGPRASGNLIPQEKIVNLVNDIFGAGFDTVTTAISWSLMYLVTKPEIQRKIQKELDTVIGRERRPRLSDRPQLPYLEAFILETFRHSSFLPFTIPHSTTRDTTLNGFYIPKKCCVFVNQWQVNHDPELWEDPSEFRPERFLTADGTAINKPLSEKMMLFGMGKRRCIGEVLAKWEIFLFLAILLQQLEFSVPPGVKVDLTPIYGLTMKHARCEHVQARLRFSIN

Cytochrome P450 3A4 = Cytochrome P450 3A4 (Homo sapiens, UniProt P08684); assay: Inhibition of CYP3A4 in human liver microsomes; format: ADME, Microsome
in vitro = conditions: human, liver microsomes
[4] = Solubility of the compound in phosphate buffered saline buffer at pH 7.4; format: physicochemical
[5] = Intrinsic clearance in rat liver microsomes; format: ADME, Microsome
Cytochrome P450 2C9 = Cytochrome P450 2C9 (Homo sapiens, UniProt P11712); assay: Inhibition of CYP2C9 in human liver microsomes; format: ADME, Microsome
Cytochrome P450 2C19 = Cytochrome P450 2C19 (Homo sapiens, UniProt P33261); assay: Inhibition of CYP2C19 in human liver microsomes; format: ADME, Microsome
Chain of Cytochrome P450 2C19 (P33261 whole entry): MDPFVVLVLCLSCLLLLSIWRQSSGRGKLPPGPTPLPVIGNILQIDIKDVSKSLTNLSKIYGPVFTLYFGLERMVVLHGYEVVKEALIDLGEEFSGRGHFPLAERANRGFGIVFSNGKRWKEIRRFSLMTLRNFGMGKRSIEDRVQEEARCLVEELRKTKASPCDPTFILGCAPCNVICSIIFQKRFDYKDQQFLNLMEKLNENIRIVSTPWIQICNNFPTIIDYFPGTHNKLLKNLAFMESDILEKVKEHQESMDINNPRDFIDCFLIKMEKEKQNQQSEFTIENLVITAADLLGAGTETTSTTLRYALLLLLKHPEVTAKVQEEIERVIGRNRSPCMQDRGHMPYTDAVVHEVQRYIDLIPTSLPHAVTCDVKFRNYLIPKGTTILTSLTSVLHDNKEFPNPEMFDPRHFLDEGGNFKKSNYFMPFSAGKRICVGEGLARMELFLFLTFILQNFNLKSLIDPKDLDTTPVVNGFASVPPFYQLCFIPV

Chain of Serine/threonine-protein kinase pim-2 (Q9P1W9 whole entry): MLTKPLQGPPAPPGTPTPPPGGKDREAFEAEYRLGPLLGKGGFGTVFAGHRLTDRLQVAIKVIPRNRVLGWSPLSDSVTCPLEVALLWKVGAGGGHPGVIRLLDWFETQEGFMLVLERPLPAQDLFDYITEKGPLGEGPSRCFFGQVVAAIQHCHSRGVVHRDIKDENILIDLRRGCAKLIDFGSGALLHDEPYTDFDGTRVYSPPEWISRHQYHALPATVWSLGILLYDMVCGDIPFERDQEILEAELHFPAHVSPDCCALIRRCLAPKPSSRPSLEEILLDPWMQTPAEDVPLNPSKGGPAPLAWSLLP
Chain of Cytochrome P450 2C9 (P11712 whole entry): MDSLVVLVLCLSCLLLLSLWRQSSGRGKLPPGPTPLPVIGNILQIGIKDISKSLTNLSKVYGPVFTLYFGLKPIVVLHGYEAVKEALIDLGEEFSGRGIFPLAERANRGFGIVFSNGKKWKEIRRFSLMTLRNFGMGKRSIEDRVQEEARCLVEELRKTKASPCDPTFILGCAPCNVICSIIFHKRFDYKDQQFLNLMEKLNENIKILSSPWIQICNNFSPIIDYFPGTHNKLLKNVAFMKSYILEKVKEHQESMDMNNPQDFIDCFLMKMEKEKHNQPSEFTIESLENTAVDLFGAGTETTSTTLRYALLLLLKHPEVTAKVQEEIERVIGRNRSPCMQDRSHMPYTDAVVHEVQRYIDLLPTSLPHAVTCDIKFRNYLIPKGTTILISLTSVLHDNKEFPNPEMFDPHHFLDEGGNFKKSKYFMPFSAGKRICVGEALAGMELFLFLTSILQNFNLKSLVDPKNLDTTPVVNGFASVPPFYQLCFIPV
Chain of Cytochrome P450 2D6 (P10635 whole entry): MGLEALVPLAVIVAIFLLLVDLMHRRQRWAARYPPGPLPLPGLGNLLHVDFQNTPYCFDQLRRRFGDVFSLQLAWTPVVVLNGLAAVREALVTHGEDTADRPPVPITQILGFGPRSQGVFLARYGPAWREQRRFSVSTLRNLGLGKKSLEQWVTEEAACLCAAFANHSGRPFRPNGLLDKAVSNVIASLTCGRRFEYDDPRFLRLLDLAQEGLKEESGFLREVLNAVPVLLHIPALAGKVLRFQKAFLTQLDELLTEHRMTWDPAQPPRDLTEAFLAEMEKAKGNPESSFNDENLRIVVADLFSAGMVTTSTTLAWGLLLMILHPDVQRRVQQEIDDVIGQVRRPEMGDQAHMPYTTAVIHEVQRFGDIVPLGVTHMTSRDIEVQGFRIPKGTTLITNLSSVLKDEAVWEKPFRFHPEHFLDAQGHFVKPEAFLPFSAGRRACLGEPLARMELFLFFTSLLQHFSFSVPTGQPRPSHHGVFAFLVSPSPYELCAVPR
Chain of Cytochrome P450 3A4 (P08684 whole entry): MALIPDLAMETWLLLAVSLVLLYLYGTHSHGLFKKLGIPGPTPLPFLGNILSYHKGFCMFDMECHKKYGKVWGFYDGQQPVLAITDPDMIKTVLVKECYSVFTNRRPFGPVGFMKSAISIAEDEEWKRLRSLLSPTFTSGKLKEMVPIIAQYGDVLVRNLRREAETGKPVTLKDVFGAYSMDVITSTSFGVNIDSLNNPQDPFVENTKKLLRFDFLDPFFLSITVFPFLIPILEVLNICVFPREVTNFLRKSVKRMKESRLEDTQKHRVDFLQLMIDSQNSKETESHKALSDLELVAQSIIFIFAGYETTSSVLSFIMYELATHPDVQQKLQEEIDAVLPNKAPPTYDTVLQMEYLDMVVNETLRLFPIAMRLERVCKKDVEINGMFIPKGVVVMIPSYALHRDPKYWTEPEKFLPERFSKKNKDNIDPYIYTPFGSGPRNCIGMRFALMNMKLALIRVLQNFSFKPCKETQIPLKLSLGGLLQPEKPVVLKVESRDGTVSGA

IC50 [1] | IC50 [2] | Compound | also measured
 | 0.054 µM | N[C@H]1CC[C@H](Nc2cncc(-c3ccc4oc(C(=O)O)cc4c3)n2)CC1 | 
0.21 µM | 0.15 µM | O=C(O)c1cc2cc(-c3cncc(NC4CCNCC4)n3)ccc2o1 | 
5.4 µM | 2.9 µM | Cn1cc(-c2ccc3oc(C(=O)O)cc3c2)cn1 | 
7.8 µM | 7.1 µM | O=C(O)c1cc2cc(-c3cccnc3)ccc2o1 | 
 | 0.004 µM | N[C@H]1CC[C@@H](Nc2cc(Br)cc3cc(C(=O)O)oc23)CC1 | IC50 (Cytochrome P450 2D6): > 10 µM; IC50 (Cytochrome P450 1A2): > 10 µM; IC50 (Cytochrome P450 3A4): > 10 µM; microsomal CLint (in vitro): 10.2 µL/min/mg; solubility [4]: 20.1 µg/mL (≈ 56.9 µM); microsomal CLint [5]: 10 µL/min/mg; IC50 (Cytochrome P450 2C9): > 10 µM; IC50 (Cytochrome P450 2C19): > 10 µM
 | 0.066 µM | N[C@H]1CC[C@H](Nc2cc(Br)cc3cc(C(=O)O)oc23)CC1 | IC50 (Cytochrome P450 2D6): > 10 µM; IC50 (Cytochrome P450 1A2): > 10 µM; IC50 (Cytochrome P450 3A4): > 10 µM; microsomal CLint (in vitro): 11.2 µL/min/mg; solubility [4]: > 58 µg/mL; microsomal CLint [5]: 8.1 µL/min/mg; IC50 (Cytochrome P450 2C9): > 10 µM; IC50 (Cytochrome P450 2C19): > 10 µM
0.45 µM | 0.1 µM | O=C(O)c1cc2cc(-c3cncc(NC4CNC4)n3)ccc2o1 | 
0.053 µM | 0.021 µM | NC[C@H]1CC[C@H](Nc2cncc(-c3ccc4oc(C(=O)O)cc4c3)n2)CC1 | 
1.9 µM | 1.2 µM | NCCCCNc1ccnc(-c2ccc3oc(C(=O)O)cc3c2)n1 | 
0.38 µM | 0.16 µM | O=C(O)c1cc2cc(-c3cncc(NCC4CCNCC4)n3)ccc2o1 | 
0.2 µM | 0.11 µM | N[C@H]1CC[C@@H](Nc2cncc(-c3ccc4oc(C(=O)O)cc4c3)n2)CC1 | 
7.4 µM | 11.9 µM | O=C(O)c1cc2cc(-c3cnccn3)ccc2o1 | 
0.46 µM | 0.59 µM | NCCCCNc1nccc(-c2ccc3oc(C(=O)O)cc3c2)n1 | 
6 µM | 5.8 µM | O=C(O)c1cc2cc(-c3cnn(C4CCNCC4)c3)ccc2o1 | 

More lines, now with the values behind:

Compound | IC50 [1] | IC50 [2] | also measured
O=C(O)c1cc2ccccc2o1 | 119 µM |  | 
O=C(CC1CCNCC1)Nc1cc(Br)cc2cc(C(=O)O)oc12 | 0.055 µM | 0.34 µM | 
O=C(O)c1cc2cc(Br)cc(NCCC3CCNCC3)c2o1 | 0.04 µM | 0.54 µM | 
O=C(O)c1cc2cc(Br)cc(C(=O)NC3CCNCC3)c2o1 | 0.98 µM | 7 µM | 
COc1cc(Br)cc2cc(C#N)oc12 |  |  | inhibition [3]: inactive
O=C(O)c1cc2cc(Br)cc(OCCC3CCNCC3)c2o1 | 0.051 µM | 0.35 µM | 
O=C(O)c1cc2cc(Br)cc(NC(=O)C3CCNCC3)c2o1 | 0.15 µM | 0.26 µM | 
O=C(O)c1cc2cc(Br)cc(OCc3ccncc3)c2o1 | 4.9 µM | 12.5 µM | 
O=C(O)c1cc2cc(Br)cc(N[C@H]3CC[C@H](O)CC3)c2o1 | 2.4 µM | 6.1 µM | 
O=C(O)c1cc2cc(Br)cc(OCC(=O)N3CCNCC3)c2o1 | 0.22 µM | 1.3 µM | 
O=C(O)c1cc2cc(Br)cc(OCC3CCCNC3)c2o1 (configuration not stated) | 0.071 µM | 0.35 µM | 
O=C(O)c1cc2cc(C(F)(F)F)ccc2o1 | 5.3 µM | 13.5 µM | 
O=C(O)c1cc2cc(Br)cc(NCC3CCNCC3)c2o1 | 0.02 µM | 0.19 µM | IC50 (Cytochrome P450 2D6): > 10 µM; IC50 (Cytochrome P450 1A2): > 10 µM; IC50 (Cytochrome P450 3A4): > 10 µM; microsomal CLint (in vitro): 9.9 µL/min/mg; solubility [4]: > 58 µg/mL; microsomal CLint [5]: 14.1 µL/min/mg; IC50 (Cytochrome P450 2C9): > 10 µM; IC50 (Cytochrome P450 2C19): > 10 µM
O=C(O)c1cc2cc(Br)cc(C(=O)NCC3CCNCC3)c2o1 | 2.7 µM | 1.3 µM | 
O=C(O)c1cc2cc(Br)cc(OCC3CCNCC3)c2o1 | 0.06 µM | 0.25 µM | 
O=C(O)c1cc2cc(Br)cc(N[C@H]3CC[C@@H](O)CC3)c2o1 | 2.3 µM | 6.8 µM | 
O=C(O)c1cc2cc(OC(F)(F)F)ccc2o1 | 6.1 µM |  | 
O=C(O)c1cc2cc(Br)cc(OCCc3ccncc3)c2o1 | 4.5 µM | 21.1 µM | 
